Measured values: patent US6548450B1, “Tetrazolinone derivatives” (Nihon Bayer Agrochem, K.K., priority 1999, dated 2003)

System: paddy field weeds
Test: Test for herbicidal effect against paddy field weeds
Type: in vivo
Details: application rate of 0.5 kg/ha, applied to the surface of the water 5 days after rice transplantation, examined after 3 weeks, greenhouse pot
Protocol: Test for Herbicidal Effect Against Paddy Field Weeds
Preparation of formulation of the active compound
Carrier: Acetone 5 parts by weight
Emulsifier: Benzyloxypolyglycolether 1 part by weight
A formulation of the active compound is obtained as an emulsion by mixing 1 part by weight of the active compound with the above-mentioned amount of carrier and emulsifier. A prescribed amount of said formulation is diluted with water to prepare a formulation for testing.
In a greenhouse 3 seedlings of paddy rice (cultivar: Nipponbare) of 2.5 leafstage (15 cm tall) were transplanted in a 500 cm^2 pot filled with paddy field soil. Then seeds of barnyard grass, smallflower, bulrush, monochoria and broad-leaved weeds (common false pimpernel, Indian toothcup, long stemmed water wort, Ammannia multiflora Roxb., Dopatrium junceum Hammilt etc.) were sown and water was poured on the soil to a depth of about 2-3 cm.
5 days after the rice transplantation a formulation of each active compound prepared according to the aforementioned preparation method was applied to the surface of the water. A water depth of 3 cm was maintained. The herbicidal effect was examined after 3 weeks from the treatment. The herbicidal effect was rated as 100% in the case of complete death and as 0% in the case of no herbicidal effect.

## CC(C)N(C(=O)n1nnn([C@@H](C)c2ccccc2)c1=O)c1ccccc1 [compound 3, 1-((S)-α-methylbenzyl)-4-(N-isopropyl-N-phenylcarbamoyl)-5(4H)-tetrazolinone]
  herbicidal effect against paddy field weeds: sufficient herbicidal effect
